Legend:
[1] = acid lability (half life) of the 2′-orthoester protecting group on uridine; details: pH 2, 25° C.; after ester hydrolysis of the ACE orthoester
[2] = buffer, pH 2

O=c1ccn(C2OC(CO)C(O)C2OC(OCCO)OCCO)c(=O)[nH]1 (centres unmarked) [2′-modified uridine]
times more labile (than 2′-ACE-uridine) [1]: 10 times | half life [2]: < 45 s
